Laboratory results: paper PMC5614861 (Organic & biomolecular chemistry, 2017)
Several values for one entry are separate records, joined by “and”; a condition that tells them apart may be missing. Equal entries are not always repeated. Numbered stars: 1 amine (or outer) side, 2 acyl side, 3 side chain; on linkers, the order of the positions; unused ones are H or OH. Bridge positions count the residues as written; N and C are the ends. Square brackets hold non-standard residues; d marks the D form. Peptide text beside a SMILES is read from it. X2 = O=C([C@@H]1C[C@H](n2cc(C3=CC=C[CH]3[Fe][CH]3C=CC=C3)nn2)CN1[*:1])[*:2]; X1 = O=C([C@@H]1C[C@H](n2cc(-c3ccc(-c4cccs4)cc3)nn2)CN1[*:1])[*:2]

Key:
[1] = target: monomeric wild type gp120 YU-2 (Human immunodeficiency virus type 1 group M subtype B, UniProt P35961); assay: Isothermal titration calorimetry; type: binding, HIV-1; settings: ITC, 25°C, 1× PBS pH 7.3
HIV-1Bal.01 = type: cell-based; settings: cutoff 10 μM
[2] = target: HIV-1 YU-2 gp120 binding to sCD4 (Human immunodeficiency virus type 1 group M subtype B, UniProt P35961); assay: SPR competition assay, inhibition of gp120 binding to CD4; settings: 250 nM YU-2 gp120, 25°C, PBS pH 7.4, triplicate
HOS.T4.R5 cells = assay: Cytotoxicity / cell viability assay; type: cell-based; settings: WST-1, 24 h post-exposure, highest concentration used 100 μM

Compound | ΔH [1] | ΔS [1] [kcal/mol] | −TΔS [1] [kcal/mol] | Activity designation in HIV-1Bal.01 infection inhibition assay (HIV-1Bal.01) | Inhibition of gp120 binding to CD4 [2] | Cytotoxicity (cell viability) (HOS.T4.R5 cells)
CC[C@H](C)[C@@H]1NC(=O)[C@H](CC(N)=O)NC(=O)[C@@H](N)CC(=O)NCCCC[C@@H](C(N)=O)NC(=O)[C@H](Cc2c[nH]c3ccccc23)NC(=O)[C@@H]2C[C@H](n3cc(C4=CC=C[CH]4[Fe][CH]4C=CC=C4)nn3)CN2C1=O (stereo partly drawn) [cPT 3] (H-DNI[X2]WK-NH2; lactam 1-6) | -5.96 kcal/mol and -5.96 ± 0.13 kcal/mol | 0.00922 | -2.75 | – | – | –
cPT 11 | – | – | – | weak (the compound showed weak inhibition (less than 50%) at 10 μM) | – | –
CC[C@H](C)[C@@H]1NC(=O)[C@H](CC(N)=O)NC(=O)[C@@H](N)CC(=O)NCCCC[C@@H](C(N)=O)NC(=O)[C@H](Cc2c[nH]c3ccccc23)NC(=O)[C@@H]2C[C@H](n3cc(-c4ccc(-c5cccs5)cc4)nn3)CN2C1=O [cPT 36] (H-DNI[X1]WK-NH2; lactam 1-6) | -4.07 ± 0.06 kcal/mol | 0.0159 | -4.74 | – | inhibited | no cytotoxicity was detected
